According to ChEMBL document CHEMBL5532655, “Discovery of (R)-4-(8-methoxy-2-methyl-1-(1-phenylethy)-1H-imidazo[4,5-c]quinnolin-7-yl)-3,5-dimethylisoxazole as a potent and selective BET inhibitor for treatment of acute myeloid leukemia (AML) guided by FEP calculation” (Eur J Med Chem, 2024):

How the values were obtained:
[1] = target: Bromodomain-containing protein 2 (Homo sapiens) (UniProt P25440); settings: time 30.0 min
MV4-11 [2] = assay: Induction of apoptosis in human MV4-11 cells assessed as early apoptotic cells at 10 uM incubated for 24 hrs by annexin V-FITC/PI staining based flow cytometric analysis (reference value: 0%); assay type: functional
MV4-11 [3] = assay: Induction of cell cycle arrest in human MV4-11 cells assessed as accumulation of cells at G0/G1 phase at 0.3125 uM incubated for 24 hrs by propidium iodide staining flow cytometric analysis (reference value: 37.64 %); assay type: functional
MV4-11 [4] = assay: Induction of cell cycle arrest in human MV4-11 cells assessed as accumulation of cells at S phase at 5 uM incubated for 24 hrs by propidium iodide staining flow cytometric analysis (reference value: 43.94 %); assay type: functional
MV4-11 [5] = assay: Induction of apoptosis in human MV4-11 cells assessed as late apoptotic cells at 5 uM incubated for 24 hrs by annexin V-FITC/PI staining based flow cytometric analysis (reference value: 0.04 %); assay type: functional
[6] = AUC (0-t) in Sprague-Dawley rat at 1 mg/kg,iv administration measured upto 24 hrs by LC-MS/MS analysis; assay type: ADME, organism-based; settings: in vivo
MV4-11 [7] = assay: Induction of apoptosis in human MV4-11 cells assessed as necrotic cells at 1.25 uM incubated for 24 hrs by annexin V-FITC/PI staining based flow cytometric analysis (reference value: 2.35 %); assay type: functional
MV4-11 [8] = assay: Induction of apoptosis in human MV4-11 cells assessed as early apoptotic cells at 0.625 uM incubated for 24 hrs by annexin V-FITC/PI staining based flow cytometric analysis (reference value: 0%); assay type: functional

Chain of Bromodomain-containing protein 2 (Homo sapiens) (P25440 whole entry, looked up): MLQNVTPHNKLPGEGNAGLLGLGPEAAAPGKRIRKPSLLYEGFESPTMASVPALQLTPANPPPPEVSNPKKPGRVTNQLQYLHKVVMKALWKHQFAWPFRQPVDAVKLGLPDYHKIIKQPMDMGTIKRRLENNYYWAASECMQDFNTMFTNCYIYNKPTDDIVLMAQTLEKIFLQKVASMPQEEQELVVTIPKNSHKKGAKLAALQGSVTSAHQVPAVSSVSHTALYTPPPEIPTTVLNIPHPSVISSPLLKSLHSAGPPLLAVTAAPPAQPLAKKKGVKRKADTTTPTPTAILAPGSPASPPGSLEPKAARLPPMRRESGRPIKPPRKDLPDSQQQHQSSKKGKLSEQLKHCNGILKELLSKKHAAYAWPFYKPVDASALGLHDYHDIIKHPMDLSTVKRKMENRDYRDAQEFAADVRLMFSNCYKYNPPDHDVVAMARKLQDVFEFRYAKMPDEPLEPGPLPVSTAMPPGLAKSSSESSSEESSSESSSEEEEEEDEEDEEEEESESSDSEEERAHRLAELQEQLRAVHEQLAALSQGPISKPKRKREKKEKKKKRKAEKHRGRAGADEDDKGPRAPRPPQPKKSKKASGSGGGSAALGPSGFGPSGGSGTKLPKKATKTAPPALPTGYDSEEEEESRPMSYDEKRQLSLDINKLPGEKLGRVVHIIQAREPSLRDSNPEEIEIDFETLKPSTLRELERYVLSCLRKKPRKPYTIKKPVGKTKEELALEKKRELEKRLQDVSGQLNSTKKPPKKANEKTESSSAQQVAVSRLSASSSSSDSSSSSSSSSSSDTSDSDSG

ΔTm [1]	AUC(0-t) at 24 h [6]	SMILES	Activity (MV4-11 [2])	Activity (MV4-11 [3])	Activity (MV4-11 [4])	Activity (MV4-11 [5])	Activity (MV4-11 [7])	Activity (MV4-11 [8])
5 °C		COc1cc2c(cc1-c1c(C)n[nH]c1C)ncc1nc(C)n([C@H](C)c3ccccc3)c12						
	1380 ng·h/mL	COc1cc2c(cc1-c1c(C)noc1C)ncc1nc(C)n([C@H](C)c3ccccc3)c12	10.04%	48.98%	17.41%	12.62%	8%	6.87%
